Results taken from ChEMBL document CHEMBL3108665, “Himbacine-derived thrombin receptor antagonists: c7-aminomethyl and c9a-hydroxy analogues of vorapaxar” (ACS Med Chem Lett, 2014).
The source made the active and inactive calls. The calls are words filed in the database; no cut-off is given here.

Tests used:
[1] = biological target: T1, Proteinase-activated receptor 1 (Homo sapiens, UniProt P25116); assay: Displacement of [3H]haTRAP from PAR-1 isolated from human platelets by liquid scintillation counting analysis
T1 sequence (P25116 whole entry): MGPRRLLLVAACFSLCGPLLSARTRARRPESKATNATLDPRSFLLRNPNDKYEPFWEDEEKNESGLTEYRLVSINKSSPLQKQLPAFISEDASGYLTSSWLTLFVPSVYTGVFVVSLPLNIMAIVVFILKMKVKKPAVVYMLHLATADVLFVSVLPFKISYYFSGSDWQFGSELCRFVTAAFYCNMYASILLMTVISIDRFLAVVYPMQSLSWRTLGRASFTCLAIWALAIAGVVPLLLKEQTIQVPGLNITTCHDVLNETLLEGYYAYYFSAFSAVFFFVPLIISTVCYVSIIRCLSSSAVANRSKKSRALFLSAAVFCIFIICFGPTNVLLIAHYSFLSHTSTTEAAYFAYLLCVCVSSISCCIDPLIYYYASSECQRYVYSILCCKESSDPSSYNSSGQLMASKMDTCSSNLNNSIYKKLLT

[2] = system: Cynomolgus monkey; assay: Ex vivo inhibition of PAR-1 in cynomolgus monkey blood assessed as inhibition of haTRAP-induced platelet aggregation at 1 mg/kg, po up to 24 hrs by aggregometry; assay type: functional, organism-based; set-up: dose 1 mg/kg; details: Macaca fascicularis
[3] = AUC (0 to 6 hrs) in rat plasma at 10 mg/kg, po; assay type: ADME, organism-based; set-up: time < 6 hr, dose 10 mg/kg, route oral
[4] = Aqueous solubility of the compound; assay type: physicochemical

Compound | Ki [1] [nM] | Activity [2] | AUC(0-t) at 6 h [3] [ng·h/mL] | solubility [4] [µM]
C[C@H]1OC(=O)[C@@H]2C[C@@H]3C[C@H](C(=O)NCCO)CC[C@H]3[C@H](/C=C/c3ccc(-c4cccc(C(F)(F)F)c4)cn3)[C@H]12 | 98 |  |  | 
CCOC(=O)N[C@@H]1CC[C@@H]2[C@@H](C1)C[C@@]1(O)C(=O)O[C@H](C)[C@H]1[C@H]2/C=C/c1ccc(-c2cccc(F)c2)cn1 | 19.5 | Active | 7430 | 
C[C@H]1OC(=O)[C@@H]2C[C@@H]3C[C@H](C(=O)N4CC[C@@H](O)C4)CC[C@H]3[C@H](/C=C/c3ccc(-c4cccc(C(F)(F)F)c4)cn3)[C@H]12 | 180 |  |  | 
C[C@H]1OC(=O)[C@@H]2C[C@@H]3C[C@H](CNC(=O)C4CCNCC4)CC[C@H]3[C@H](/C=C/c3ccc(-c4cccc(F)c4)cn3)[C@H]12 | 13.5 |  | 5 | 
C[C@H]1OC(=O)[C@@H]2C[C@@H]3C[C@H](CNS(C)(=O)=O)CC[C@H]3[C@H](/C=C/c3ccc(-c4cccc(F)c4)cn3)[C@H]12 | 15 |  | 7760 | 
C[C@H]1OC(=O)[C@@H]2C[C@@H]3C[C@H](CO)CC[C@H]3[C@H](/C=C/c3ccc(-c4cccc(F)c4)cn3)[C@H]12 | 8 |  | 2670 | 
CCOC(=O)N1CC[C@@H]2[C@H](C[C@H]3C(=O)O[C@H](C)[C@H]3[C@H]2/C=C/c2ccc(-c3cccc(F)c3)cn2)C1 |  |  |  | < 2
C[C@H]1OC(=O)[C@@H]2C[C@@H]3C[C@H](C(=O)Nc4ccncc4)CC[C@H]3[C@H](/C=C/c3ccc(-c4cccc(C(F)(F)F)c4)cn3)[C@H]12 | 140 |  |  | 
CC(C)NC(=O)[C@@H]1CC[C@@H]2[C@@H](C1)C[C@H]1C(=O)O[C@H](C)[C@H]1[C@H]2/C=C/c1ccc(-c2cccc(C(F)(F)F)c2)cn1 | 31 |  |  | 
CC(=O)NC[C@@H]1CC[C@@H]2[C@@H](C1)C[C@H]1C(=O)O[C@H](C)[C@H]1[C@H]2/C=C/c1ccc(-c2cccc(F)c2)cn1 | 12 |  | 3810 | 
C[C@H]1OC(=O)[C@@H]2C[C@@H]3C[C@H](CN)CC[C@H]3[C@H](/C=C/c3ccc(-c4cccc(F)c4)cn3)[C@H]12 | 20 |  |  | 
CCNC(=O)NC[C@@H]1CC[C@@H]2[C@@H](C1)C[C@H]1C(=O)O[C@H](C)[C@H]1[C@H]2/C=C/c1ccc(-c2cccc(F)c2)cn1 | 12.9 |  | 567 | 
CCC(=O)NC[C@@H]1CC[C@@H]2[C@@H](C1)C[C@H]1C(=O)O[C@H](C)[C@H]1[C@H]2/C=C/c1ccc(-c2cccc(F)c2)cn1 | 12.5 |  | 7730 | 
C[C@H]1OC(=O)[C@@H]2C[C@@H]3C[C@H](CNC(=O)[C@@H]4CCCN4)CC[C@H]3[C@H](/C=C/c3ccc(-c4cccc(F)c4)cn3)[C@H]12 | 24 |  |  | 
C[C@H]1OC(=O)[C@@H]2C[C@@H]3C[C@H](C(=O)Nc4cccnc4)CC[C@H]3[C@H](/C=C/c3ccc(-c4cccc(C(F)(F)F)c4)cn3)[C@H]12 | 239 |  |  | 
CNC(=O)[C@@H]1CC[C@@H]2[C@@H](C1)C[C@H]1C(=O)O[C@H](C)[C@H]1[C@H]2/C=C/c1ccc(-c2cccc(C(F)(F)F)c2)cn1 | 25 |  |  | 
CCOC(=O)NC[C@@H]1CC[C@@H]2[C@@H](C1)C[C@H]1C(=O)O[C@H](C)[C@H]1[C@H]2/C=C/c1ccc(-c2cccc(F)c2)cn1 | 14 |  | 1210 | 
C[C@H]1OC(=O)[C@@H]2C[C@@H]3C[C@H](C(=O)N4CC[C@H](O)C4)CC[C@H]3[C@H](/C=C/c3ccc(-c4cccc(C(F)(F)F)c4)cn3)[C@H]12 | 384 |  |  | 
COC(=O)NC[C@@H]1CC[C@@H]2[C@@H](C1)C[C@H]1C(=O)O[C@H](C)[C@H]1[C@H]2/C=C/c1ccc(-c2cccc(F)c2)cn1 | 5 | inactive | 4860 | 
CCS(=O)(=O)NC[C@@H]1CC[C@@H]2[C@@H](C1)C[C@H]1C(=O)O[C@H](C)[C@H]1[C@H]2/C=C/c1ccc(-c2cccc(F)c2)cn1 | 14.5 |  |  | 
CCNC(=O)[C@@H]1CC[C@@H]2[C@@H](C1)C[C@H]1C(=O)O[C@H](C)[C@H]1[C@H]2/C=C/c1ccc(-c2cccc(C(F)(F)F)c2)cn1 | 35 |  |  | 
C[C@H](N)C(=O)NC[C@@H]1CC[C@@H]2[C@@H](C1)C[C@H]1C(=O)O[C@H](C)[C@H]1[C@H]2/C=C/c1ccc(-c2cccc(F)c2)cn1 | 32 |  |  | 
CCOC(=O)N[C@@H]1CC[C@@H]2[C@@H](C1)C[C@H]1C(=O)O[C@H](C)[C@H]1[C@H]2/C=C/c1ccc(-c2cccc(F)c2)cn1 [VORAPAXAR] | 8.5 |  | 3060 | 
